Measurements reported in US8163513B2, “Method for determining the total clotting activity of a blood or plasma sample” (JenAffin GmbH, priority 2005, dated 2012).

Tested on: thrombin
Assay: THROGA (thrombin generation assay): maximal thrombin generation in citrate blood or plasma of treated patients
Assay type: in vivo, human
Protocol: For maximal generation of thrombin, a small amount of anti-coagulant blood or plasma is used. For this, citrate, but also every other anti-coagulant may be used. 0.1 ml citrate blood or citrate plasma each are put into a reference tube (NaCl) and an activator tube (tissue factor+mixture of ellagic acid and phospholipids) in which a defined amount of hirudin is present. After closing the reaction vessels, the two containers are mixed in a mini shaker at 550 rpm at room temperature for 25 minutes. The activation of coagulation is subsequently terminated with a stop solution containing EDTA and the remaining not-consumed free hirudin is determined with a precise detection method. For the exact measurement of the hirudin content in the reaction vessels, a commercial available chromogenic hirudin determination method via chromogenic substrate (ECA, Ecarin Chromogenic Assay, WO 0046602) is employed.
For one determination, 100 μl citrate blood or citrate plasma, respectively, are put into one activator tube and one reference tube each. In order to avoid evaporation, the tubes should be closed after dissolving (“Lösen”). Subsequently, the tubes are put into a shaker for 30-60 minutes. In order to terminate the reaction after shaking, 1000 μl stop reagent are added into each tube and carefully mixed with the pipette.
In both THROGA-samples (reference tube and activator tube) the anti-thrombin units (ATU) are now determined via ECA-H.
From the ATU determined in reference tube and activator tube, respectively, the thrombin units formed in the plasma or blood sample are calculated with the following formula: ETP=R−A • ETP maximal endogenic thrombin potential, thrombin units formed in 1 ml blood or plasma • R anti-thrombin units in the reference tube (ATU/ml blood or plasma) • A anti-thrombin units in the activator tube (ATU/ml blood or plasma) Generating a Reference Curve

[1] = patient two under falithrom, blood
[2] = patient two under falithrom, plasma

SMILES | % of the normal generable thrombin amount in the blood [1] [%] | generated thrombin in the blood [1] [TU/ml] | bleeding tendency (patient two under falithrom, judged from the THROGA-value in blood) | % of the normal plasma value [2] [%] | generated thrombin in the plasma [2] [TU/ml] | Difference control (A) minus activated sample (B), blood (patient two, thrombophilia upon gammopathy, thrombosis prophylaxis with falithrom, blood, use of the kit) [ATU/ml] | Difference control (A) minus activated sample (B), plasma (patient two, thrombosis prophylaxis with falithrom, plasma, use of the kit) [ATU/ml] | ATU/ml; TU/ml (generated thrombin, THROGA-value), blood (patient one, state after cerebral insult, after 8 weeks of clopidogrel, 1.5 tablets daily (112.5 mg), blood, norm 78±13 TU/ml, 99.5 prior to therapy) [TU/ml] | THROGA-values in all further controls (patient one, under clopidogrel therapy) | ATU/ml; TU/ml (generated thrombin, THROGA-value), plasma (patient one, after 8 weeks of clopidogrel, 1.5 tablets daily (112.5 mg), plasma, N: 122±19 TU/ml, 118.5 prior to therapy) [TU/ml]
CCC(c1ccccc1)c1c(O)c2ccccc2oc1=O (stereo not shown) [falithrom] | 60 | 46.3 | no bleeding tendency can be observed | 32 | 39.3 | 46.3 | 39.3 |  |  | 
COC(=O)[C@H](c1ccccc1Cl)N1CCc2sccc2C1 [clopidogrel] |  |  |  |  |  |  |  | 82.2 | normal | 116.9
